This is an account of results in patent US10865384B2, “2,4,5-tri-substituted azole-based casein kinase 1 inhibitors as inducers for cardiomyogenesis” (AGENCY FOR SCIENCE, TECHNOLOGY AND RESEARCH, priority 2014, dated 2020).

The target of assay [1] is p38α MAPK (Homo sapiens (Human), UniProt Q16539). Put plainly: LanthaScreen Eu kinase binding assay, p38 MAPK (IM-32 to IM-44). The following applies: LanthaScreen Eu binding assay (IM-32 to IM-44); read-out: p38α MAPK IC50 ± SEM. The method, then: The p38 MAPK IC50 values of selected compounds except IM-32 to IM-44 were determined using the HitHunter™ p38 MAP kinase binding assay from DiscoveRx Corporation (Fremont, Calif., USA). The p38 MAPK IC50 values of IM-32 to IM-44 and the CK1 IC50 values of selected compounds were determined using LanthaScreen™ Eu kinase binding assay from Invitrogen (Life Technologies, Carlsbad, Calif., USA). The assays were performed following the manufacturers' protocols in white 384-well plates (Cat. No. 3572; Corning Incorporated, Corning, N.Y., USA). SB203580 was used as the control in all assays. For the HitHunter™ p38 MAP kinase binding assay the compounds were dissolved in DMSO (5 mM stocks) and diluted to a final concentration of 2% (vol/vol) DMSO for all assays. Recombinant GST-tagged active p38α MAP kinase enzyme (Millipore, Billerica, Mass., USA) was used for the HitHunter™ p38 MAP kinase binding assay. For the LanthaScreen™ Eu kinase binding assay the compounds were dissolved in DMSO (5 mM stocks) and diluted to a final concentration of 1% (vol/vol) DMSO for all assays. Each data point was done in triplicate. The assay was run using JANUS Automated Workstation according to the protocol developed using WinPREP software (Perkin Elmer Inc., Waltham, Mass., USA). Tecan Infinite® M1000 microplate reader (Tecan Group Ltd., Minnedorf, Switzerland) was used for luminescence measurements (HitHunter™ p38 MAP kinase binding assay) and fluorescence measurements (LanthaScreen™ Eu kinase binding assay; ex=340 nm, em=665, 615 nm). All data analysis was performed using GraphPad Prism 5 software (GraphPad Software Inc.). Inhibition curves and IC50 values were generated by nonlinear regression analysis and data represent mean±SEM.
The in vitro IC50 values of the synthesized compounds against the relevant kinase targets are summarized. The IC50 values were determined using either the HitHunter™ p38 MAPK binding assay from DiscoveRx or the LanthaScreen™ Eu kinase binding assay (for p38alpha MAPK, CK1delta, and CK1epsilon) from Invitrogen.

A further assay deals with CK1ϵ (Homo sapiens (Human), UniProt P49674). Put plainly: LanthaScreen Eu kinase binding assay, CK1ϵ.
The next assay addresses CK1δ (Homo sapiens (Human), UniProt P48730). Nature of the assay: LanthaScreen Eu kinase binding assay, CK1δ. Background: TR-FRET usually uses a lanthanide donor and a delayed reading to cut background.
Assay [2] deals with p38α MAPK. The following applies: read-out: IC50 (published by companies), p38α MAPK inhibition; cited from earlier work.

Where two headings read alike, the source gives them in different places.

CK1ϵ, sequence (P49674 whole entry): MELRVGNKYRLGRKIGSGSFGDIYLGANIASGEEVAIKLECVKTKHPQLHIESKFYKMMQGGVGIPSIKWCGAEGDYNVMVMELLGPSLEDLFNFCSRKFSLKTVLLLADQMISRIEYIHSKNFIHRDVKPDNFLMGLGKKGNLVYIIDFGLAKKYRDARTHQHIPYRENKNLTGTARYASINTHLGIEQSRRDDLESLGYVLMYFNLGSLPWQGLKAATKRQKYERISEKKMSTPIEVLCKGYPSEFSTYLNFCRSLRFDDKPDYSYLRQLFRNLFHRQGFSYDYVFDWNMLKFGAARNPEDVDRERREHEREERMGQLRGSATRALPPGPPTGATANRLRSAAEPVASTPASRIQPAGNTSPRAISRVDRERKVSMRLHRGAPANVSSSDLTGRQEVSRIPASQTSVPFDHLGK
p38α MAPK, sequence (Q16539 whole entry, looked up): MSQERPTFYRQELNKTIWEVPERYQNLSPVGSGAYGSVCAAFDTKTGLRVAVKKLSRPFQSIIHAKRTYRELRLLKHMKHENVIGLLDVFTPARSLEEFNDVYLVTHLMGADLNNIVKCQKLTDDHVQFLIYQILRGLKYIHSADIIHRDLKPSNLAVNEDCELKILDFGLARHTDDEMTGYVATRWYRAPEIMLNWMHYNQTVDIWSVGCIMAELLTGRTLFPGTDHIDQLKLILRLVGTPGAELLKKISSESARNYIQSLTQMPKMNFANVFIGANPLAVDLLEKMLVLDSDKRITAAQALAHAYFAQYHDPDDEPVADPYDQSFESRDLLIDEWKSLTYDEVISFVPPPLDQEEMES
CK1δ, sequence (P48730 whole entry): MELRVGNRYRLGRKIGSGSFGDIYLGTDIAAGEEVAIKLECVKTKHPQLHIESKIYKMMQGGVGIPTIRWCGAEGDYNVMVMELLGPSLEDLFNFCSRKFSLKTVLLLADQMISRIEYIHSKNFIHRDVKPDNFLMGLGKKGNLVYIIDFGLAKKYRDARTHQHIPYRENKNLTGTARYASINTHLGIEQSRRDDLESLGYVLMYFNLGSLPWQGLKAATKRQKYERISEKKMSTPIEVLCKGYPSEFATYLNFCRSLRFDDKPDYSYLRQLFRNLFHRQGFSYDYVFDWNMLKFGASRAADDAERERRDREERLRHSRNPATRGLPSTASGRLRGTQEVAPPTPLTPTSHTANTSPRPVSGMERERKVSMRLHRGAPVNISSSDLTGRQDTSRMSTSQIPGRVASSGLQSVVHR

Regarding `Cc1cccc(-c2nc(C#CCCO)[nH]c2-c2ccncc2)c1` [IM-41, 4-(5(4)-(pyridin-4-yl)-4(5)-(m-tolyl)-1H-imidazol-2-yl)but-3-yn-1-ol], on p38α MAPK [1], the IC50 – broadly, the concentration needed to halve the response being measured – was determined as 47 ± 5 nM. For the same compound, the inhibition (in general, the drop in the measured response relative to a control, in per cent) at 1 µM at CK1ϵ was 38%; at CK1δ, 11%.

On to `Cc1cccc(-c2nc(-c3ccc(S(C)(=O)=O)cc3)[nH]c2-c2ccncc2)c1` [IM-33, 4-(2-(4-(methylsulfonyl)phenyl)-4(5)-(m-tolyl)-1H-imidazol-5(4)-yl)pyridine], for which the IC50 at p38α MAPK [1] is 9.5 ± 2.8 nM. Moreover, the results for the inhibition at 1 µM on CK1ϵ and at CK1δ were 36% and 23%, respectively.

For the compound `Cc1cccc(-c2nc(-c3ccc(C(=O)O)cc3)[nH]c2-c2ccncc2)c1` [IM-38, 4-(5(4)-(pyridin-4-yl)-4(5)-(m-tolyl)-1H-imidazol-2-yl)benzoic acid], the IC50 on p38α MAPK [1] turned out to be 3.3 ± 1.1 nM; on CK1ϵ (Table 3, read-out: IC50 Ck1ε) it was 1060 nM; at CK1ϵ (read-out: CK1ϵ IC50 ± SEM), 1060 ± 108 nM; on CK1δ (Table 3, read-out: IC50 CK1δ), 4710 nM; on CK1δ (read-out: CK1δ IC50 ± SEM), 4710 ± 1620 nM.

For the compound `Cc1cccc(-c2nc[nH]c2-c2ccncc2)c1` [IM-44, 4-(4(5)-(m-tolyl)-1H-imidazol-5(4)-yl)pyridine], the IC50 on p38α MAPK [1] came out at 45 ± 8 nM. For the same compound, the inhibition at 1 µM amounted to 42% on CK1ϵ and 4% on CK1δ.

Regarding `Cc1cccc(-c2nc(-c3ccc(C(N)=O)cc3)[nH]c2-c2ccncc2)c1` [IM-39, 4-(5(4)-(pyridin-4-yl)-4(5)-(m-tolyl)-1H-imidazol-2-yl)benzamide], the IC50 on p38α MAPK [1] was found to be 2.7 ± 0.3 nM; on CK1ϵ (Table 3, read-out: IC50 Ck1ε) it was 300 nM; at CK1ϵ (read-out: CK1ϵ IC50 ± SEM), 300 ± 16 nM; on CK1δ (Table 3, read-out: IC50 CK1δ) it was 787 nM; on CK1δ (read-out: CK1δ IC50 ± SEM) it was 787 ± 98 nM.

Consider `Cc1cccc(-c2nc(-c3ccc(NS(C)(=O)=O)cc3)[nH]c2-c2ccncc2)c1` [IM-35, N-(4-(5(4)-(pyridin-4-yl)-4(5)-(m-tolyl)-1H-imidazol-2-yl)phenyl)methanesulfonamide], for which the IC50 on p38α MAPK [1] came to 5 nM. Further, the inhibition at 1 µM on CK1ϵ was found to be 40%; at CK1δ, 13%.

Consider `Cc1cccc(-c2nc(CN(C)C)[nH]c2-c2ccncc2)c1` [IM-42, N,N-dimethyl-1-(5(4)-(pyridin-4-yl)-4(5)-(m-tolyl)-1H-imidazol-2-yl)methanamine], for which the IC50 on p38α MAPK [1] is 26 ± 3 nM. Further, the inhibition at 1 µM on CK1ϵ came out at 29%; at CK1δ, 3%.

Regarding `Cc1cccc(-c2nc(-c3ccc(N)cc3)[nH]c2-c2ccncc2)c1` [IM-34, 4-(5(4)-(pyridin-4-yl)-4(5)-(m-tolyl)-1H-imidazol-2-yl)aniline], the IC50 on p38α MAPK [1] is 2.8 ± 2 nM. Besides, the inhibition at 1 µM at CK1ϵ amounted to 28%; on CK1δ, 24%.

In the case of `Cc1cccc(-c2nc(-c3ccc(C(=N)NO)cc3)[nH]c2-c2ccncc2)c1` [IM-37, (Z)—N′-hydroxy-4-(5(4)-(pyridin-4-yl)-4(5)-(m-tolyl)-1H-imidazol-2-yl)benzimidamide], the IC50 on p38α MAPK [1] was determined as 3.2 ± 0.3 nM; at CK1ϵ (Table 3, read-out: IC50 Ck1ε) it was 295 nM; on CK1ϵ (read-out: CK1ϵ IC50 ± SEM), 295 ± 48 nM; at CK1δ (Table 3, read-out: IC50 CK1δ), 889 nM; on CK1δ (read-out: CK1δ IC50 ± SEM), 889 ± 290 nM.

As to `Cc1cccc(-c2nc(C(O)C3=CCCCC3)[nH]c2-c2ccncc2)c1` (racemic) [IM-43, Cyclohex-1-en-1-yl(5(4)-(pyridin-4-yl)-4(5)-(m-tolyl)-1H-imidazol-2-yl)methanol], on p38α MAPK [1], the IC50 was found to be 11 ± 2 nM. Besides, the inhibition at 1 µM at CK1ϵ came to 22%. Further, the “CK1δ inhibition at 1 μM” value at CK1δ (at 1 μM) is given as “No inhibition at 1 μM”.

As for `Cc1cccc(-c2nc(-c3ccc([N+](=O)[O-])cc3)[nH]c2-c2ccncc2)c1` [IM-32, 4-(2-(4-nitrophenyl)-4(5)-(m-tolyl)-1H-imidazol-5(4)-yl)pyridine], the IC50 at p38α MAPK [1] stood at 4.4 ± 2.4 nM. The inhibition at 1 µM on CK1ϵ came out at 47%; at CK1δ, 31%.

Take `Cc1cccc(-c2nc(-c3ccc(C#N)cc3)[nH]c2-c2ccncc2)c1` [IM-36, 4-(5(4)-(pyridin-4-yl)-4(5)-(m-tolyl)-1H-imidazol-2-yl)benzonitrile]: the IC50 on p38α MAPK [1] amounted to 5.3 ± 0.5 nM. The figures for the inhibition at 1 µM at CK1ϵ and on CK1δ were 36% and 11%, respectively.

Regarding `COC(=O)c1ccc(-c2nc(-c3cccc(C)c3)c(-c3ccncc3)[nH]2)cc1` [IM-40, Methyl 4-(5(4)-(pyridin-4-yl)-4(5)-(m-tolyl)-1H-imidazol-2-yl)benzoate], at p38α MAPK [1], the IC50 stood at 3.7 ± 0.7 nM. Further, the figures for the inhibition at 1 µM at CK1ϵ and at CK1δ were 43% and 10%, respectively.

Turning to `Oc1ccc(-c2nc(-c3ccc(F)cc3)c(-c3ccncc3)[nH]2)cc1` [SB202190, reference compound], the IC50 was 83 nM on CK1ϵ (Table 3, read-out: IC50 Ck1ε); 83 ± 4 nM on CK1ϵ (read-out: CK1ϵ IC50 ± SEM); 53 nM on CK1δ (Table 3, read-out: IC50 CK1δ); 53 ± 7 nM at CK1δ (read-out: CK1δ IC50 ± SEM); […] in the assay on p38α MAPK [2].

As to `O=c1ncn2nc(Sc3ccc(F)cc3F)ccc2c1-c1c(Cl)cccc1Cl` [VX-745], in the assay on p38α MAPK [2], the IC50 was […].
